Common to all, as to type: cell-based
The subject of test [1] is THP-1 macrophages. As to the kind of experiment: Galectin puncta formation in THP-1 macrophages. As to conditions: 250 μM, 2h.
In test [2] the test system is THP-1 macrophages. As to the kind of experiment: Lysosomal damage readouts (cathepsin B activity, LysoTracker Red) in THP-1 macrophages.
Test [3] relates to AMPK. In words: AMPK activation response in THP-1 macrophages. Conditions: cells KD for Gal9.

On to `CN(C)C(=N)N=C(N)N` [metformin], for which the Galectin puncta formation result in test [1] was “causes Gal3, Gal8, and Gal9 puncta formation”. In test [2] (THP-1 macrophages), the “LysoTracker Red stain” value is “Reduction” and the “lysosomal cathepsin B activity” value was “loss of activity”. For the same compound, the lysosomal damage result in test [2] (preliminary studies) is on record as “causes lysosomal damage”. Further, the AMPK activation entry in test [3] was “Gal9-dependent AMPK activation”.

The record behind these values is US12285470B2, “Trim proteins and galectins cooperate and codirect autophagy and are useful in the treatment of autophagy related diseases” (UNM RAINFOREST INNOVATIONS, priority 2016, dated 2025).
